Test results as given in the supplement of paper PMC10307832.

Legend:
Assay in all cases: relative viability (nuclei count vs DMSO), 5 days (fraction); higher = more cells survive
[1] = tested on: LOU-NH91
Summary of the method: (§1)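 Relative viability divides the nuclei count in treated wells by that in vehicle wells. Lung cancer cell lines were seeded in 1536-well plates, dosed by pin tool the next day, and fixed and stained after 5 days in one step with final 0.05% Triton X-100, 1% formaldehyde and 1 ug/ml Hoechst. Dosing was a single drug or a fixed anchor-drug dose plus five library-drug doses (not always all listed) in √10 steps, and values are medians of duplicate plates imaged at 4×.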

[2] = tested on: 201T
Summary of the method: as §1

[3] = tested on: LK-2
Summary of the method: as §1

[4] = tested on: PC-3 [JPC-3]
Summary of the method: as §1

[5] = tested on: COR-L23
Summary of the method: as §1

[6] = tested on: NCI-H23
Summary of the method: as §1

[7] = tested on: NCI-H1793
Summary of the method: as §1

[8] = tested on: LCLC-97TM1
Summary of the method: as §1

[9] = tested on: NCI-H1651
Summary of the method: as §1

[10] = tested on: UMC-11
Summary of the method: as §1

[11] = tested on: NCI-H838
Summary of the method: as §1

[12] = tested on: NCI-H2347
Summary of the method: as §1

[13] = tested on: HARA
Summary of the method: as §1

[14] = tested on: RERF-LC-KJ
Summary of the method: as §1

[15] = tested on: NCI-H520
Summary of the method: as §1

[16] = tested on: NCI-H647
Summary of the method: as §1

[17] = tested on: NCI-H2405
Summary of the method: as §1

[18] = tested on: LXF-289
Summary of the method: as §1

[19] = tested on: HCC-78
Summary of the method: as §1

[20] = tested on: A-427
Summary of the method: as §1

[21] = tested on: NCI-H1650
Summary of the method: as §1

With CN1CCN(CCOc2cc(OC3CCOCC3)c3c(Nc4c(Cl)ccc5c4OCO5)ncnc3c2)CC1 [Saracatinib] + CC1(C)CCC(c2ccc(Cl)cc2)=C(CN2CCN(c3ccc(C(=O)NS(=O)(=O)c4ccc(N[C@H](CCN5CCOCC5)CSc5ccccc5)c(S(=O)(=O)C(F)(F)F)c4)cc3)CC2)C1 [Navitoclax] (partner 0.5 µM) the relative viability ([1]; first compound 0.02 µM) was 0.678, the relative viability ([1]; first compound 0.2 µM) was 0.418 and the relative viability ([1]; first compound 0.6325 µM) was 0.405. The relative viability ([1]; first compound 2 µM) was 0.361, the relative viability ([2]; first compound 0.02 µM) was 1.29 and the relative viability ([2]; first compound 0.2 µM) was 1.16. For the same compound, the relative viability ([2]; first compound 0.6325 µM) was 1.09, the relative viability ([2]; first compound 2 µM) was 1.1 and the relative viability ([3]; first compound 0.02 µM) was 0.795. For the same compound, the relative viability ([3]; first compound 0.2 µM) was 0.781, the relative viability ([3]; first compound 0.6325 µM) was 0.71 and the relative viability ([3]; first compound 2 µM) was 0.489. It also gave a relative viability ([4]; first compound 0.02 µM) of 0.806, a relative viability ([4]; first compound 0.2 µM) of 0.754 and a relative viability ([4]; first compound 0.6325 µM) of 0.726. For the same compound, the relative viability ([4]; first compound 2 µM) was 0.508, the relative viability ([5]; first compound 0.02 µM) was 1.1 and the relative viability ([5]; first compound 0.2 µM) was 0.966. For the same compound, the relative viability ([5]; first compound 0.6325 µM) was 0.923, the relative viability ([5]; first compound 2 µM) was 0.933 and the relative viability ([6]; first compound 0.02 µM) was 0.815. The relative viability ([6]; first compound 0.6325 µM) was 0.847, the relative viability ([6]; first compound 2 µM) was 0.52 and the relative viability ([7]; first compound 0.02 µM) was 0.456. The relative viability ([7]; first compound 0.2 µM) was 0.402, the relative viability ([7]; first compound 0.6325 µM) was 0.401 and the relative viability ([7]; first compound 2 µM) was 0.201. The relative viability ([8]; first compound 0.02 µM) was 0.422, the relative viability ([8]; first compound 0.2 µM) was 0.356 and the relative viability ([8]; first compound 0.6325 µM) was 0.501. The relative viability ([8]; first compound 2 µM) was 0.46, the relative viability ([9]; first compound 0.02 µM) was 1.06 and the relative viability ([9]; first compound 0.2 µM) was 0.681. The relative viability ([9]; first compound 0.6325 µM) was 0.998, the relative viability ([9]; first compound 2 µM) was 1.03 and the relative viability ([10]; first compound 0.02 µM) was 0.318. The relative viability ([10]; first compound 0.6325 µM) was 0.295, the relative viability ([10]; first compound 2 µM) was 0.267 and the relative viability ([11]; first compound 0.02 µM) was 1.15. For the same compound, the relative viability ([11]; first compound 0.2 µM) was 1.02, the relative viability ([11]; first compound 0.6325 µM) was 1.03 and the relative viability ([11]; first compound 2 µM) was 0.918. It also gave a relative viability ([12]; first compound 0.02 µM) of 0.725, a relative viability ([12]; first compound 0.2 µM) of 0.686 and a relative viability ([12]; first compound 0.6325 µM) of 0.862. The relative viability ([12]; first compound 2 µM) was 0.599, the relative viability ([13]; first compound 0.02 µM) was 1.2 and the relative viability ([13]; first compound 0.6325 µM) was 1.1. It also gave a relative viability ([13]; first compound 2 µM) of 0.984, a relative viability ([14]; first compound 0.02 µM) of 0.817 and a relative viability ([14]; first compound 0.2 µM) of 1.17. It also gave a relative viability ([14]; first compound 0.6325 µM) of 0.959, a relative viability ([14]; first compound 2 µM) of 0.934 and a relative viability ([15]; first compound 0.02 µM) of 1.1. The relative viability ([15]; first compound 0.2 µM) was 0.993, the relative viability ([15]; first compound 0.6325 µM) was 0.753 and the relative viability ([15]; first compound 2 µM) was 0.583. The relative viability ([16]; first compound 0.02 µM) was 1.15, the relative viability ([16]; first compound 0.2 µM) was 0.959 and the relative viability ([16]; first compound 0.6325 µM) was 1.18. It also gave a relative viability ([16]; first compound 2 µM) of 0.764, a relative viability ([17]; first compound 0.02 µM) of 0.816 and a relative viability ([17]; first compound 0.2 µM) of 0.874. For the same compound, the relative viability ([17]; first compound 0.6325 µM) was 0.401, the relative viability ([17]; first compound 2 µM) was 0.316 and the relative viability ([18]; first compound 0.02 µM) was 0.979. It also gave a relative viability ([18]; first compound 0.2 µM) of 0.846, a relative viability ([18]; first compound 0.6325 µM) of 0.993 and a relative viability ([18]; first compound 2 µM) of 0.964. The relative viability ([19]; first compound 0.02 µM) was 0.733, the relative viability ([19]; first compound 0.2 µM) was 0.779 and the relative viability ([19]; first compound 0.6325 µM) was 1.08. It also gave a relative viability ([19]; first compound 2 µM) of 0.875, a relative viability ([20]; first compound 0.02 µM) of 0.999 and a relative viability ([20]; first compound 0.2 µM) of 0.854. For the same compound, the relative viability ([20]; first compound 0.6325 µM) was 1, the relative viability ([20]; first compound 2 µM) was 0.918 and the relative viability ([21]; first compound 0.02 µM) was 1.17. It also gave a relative viability ([21]; first compound 0.2 µM) of 1.1, a relative viability ([21]; first compound 0.6325 µM) of 0.983 and a relative viability ([21]; first compound 2 µM) of 0.981.
